Marks after values point to notes of the source that are not given here.
Tests used:
Type in all cases: cell-based
JNK = assay: 4HNE-induced JNK activation, Western blot with anti-phospho-(Thr-183/Tyr-185) JNK antibody; conditions: PC12 cells
Procedure: Western blot analysis: PC12 cells were plated at 7×10^6 cells/T75 flask. After exposure to 4HNE, colostrinin or their combination, cells were collected and lysed in 50 millimolar (mM) Tris, 5 mM EDTA, 150 mM NaCl, 0.5% NP-40, 10% glycerol and protease inhibitor cocktail (supplemented with 1 mM Na3VO4, 2 mM EDTA, 1 mM phenylmethylsulfonyl fluoride). Lysates were centrifuged at 14,000g for 10 minutes (min) (4° C.) and 40 μg of protein was fractionated on a 10% SDS-polyaciylamide gel and transferred to protein-optimized membranes (Amersham, Inc.). p53 was detected using specific antibody (DO1; Santa Cruz Biotechnology, Inc.) at a dilution of 1:300. Adducts were detected using an antibody to HNE-protein adducts (Phanningen, Inc.) at a dilution of 1:500. The anti-phospho-JNK antibody (New England Biolabs, Inc., Beverly, Mass.) was raised against a synthetic phosphopeptide (SFMMT*PY*VVTRYYR) corresponding to residues 179–193 of JNK. […]
The effect of CLN on 4HNE-induced activation of JNK in PC12 cells was investigated. The activation of JNK was monitored by Western blot analysis using a highly specific anti-phospho- (Thr-183/Tyr-185) JNK antibody (Materials and Methods).

p53 = assay: 4HNE-induced activation of p53, Western blot; conditions: 4HNE-treated PC12 cells
Procedure: (§1) Western blot analysis: PC12 cells were plated at 7×10^6 cells/T75 flask. After exposure to 4HNE, colostrinin or their combination, cells were collected and lysed in 50 millimolar (mM) Tris, 5 mM EDTA, 150 mM NaCl, 0.5% NP-40, 10% glycerol and protease inhibitor cocktail (supplemented with 1 mM Na3VO4, 2 mM EDTA, 1 mM phenylmethylsulfonyl fluoride). Lysates were centrifuged at 14,000g for 10 minutes (min) (4° C.) and 40 μg of protein was fractionated on a 10% SDS-polyaciylamide gel and transferred to protein-optimized membranes (Amersham, Inc.). p53 was detected using specific antibody (DO1; Santa Cruz Biotechnology, Inc.) at a dilution of 1:300. Adducts were detected using an antibody to HNE-protein adducts (Phanningen, Inc.) at a dilution of 1:500. The anti-phospho-JNK antibody (New England Biolabs, Inc., Beverly, Mass.) was raised against a synthetic phosphopeptide (SFMMT*PY*VVTRYYR) corresponding to residues 179–193 of JNK. For visualization of primary antibody binding, all blots were incubated with horseradish peroxidase-conjugated secondary antibody (Amersham, Inc.) at a dilution of 1:2000, followed by chemiluminescence detection (Amersham, Inc.) and autoradiography.
Whether CLN could modulate p53 levels after 4HNE exposure was also investigated.

[1] = system: 4HNE-protein adducts in PC12 cells; assay: 4HNE-protein adduct formation, fluorescent microscopy (immunocytochemistry); conditions: 4HNE 25 nM or H2O2 100 μM alone
Text: Cell cultures: Pheochromocytoma (PC12) cells were provided by Dr. Regino Perez-Polo (University of Texas Medical Branch, Department of Human Biological Chemistry and Genetics) and maintained in EMEM supplemented with 10% fetal bovine serum, penicillin (100 IU/mI) and streptomycin (100 micrograms per milliliter (μg/ml)). Exponentially growing populations of PC12 cells were sub-cultured and used for all experiments.
Immunocytochemistry: PC12 cells grown on cover-slips were fixed overnight in PBS containing 2% paraformaldehyde at 4° C. Cells were permeabilized by 0.3% Triton X-100, washed in PBS then incubated with primary antibody in PBS containing 0.05% Tween 20 (PBS-T). After washing 3 times in PBS-T, FITC-labeled anti-rabbit IgG (Santa Cruz Biotechnology Inc.) was added. Cells were washed (5 times, for 10 min) with PBS-T and mounted on microscope slides in anti-fade solution (Dako, Inc.). Images of cellular immunofluorescence were acquired using a NIKON Eclipse TE300 scanning microscope.
Fluorescent microscopy and Western blot analysis was undertaken to investigate the extent of 4HNE protein-adduct formation in cultures of PC12 cells in the presence of CLN. Cells were pretreated with CLN or LAH in the presence or absence of 4HNE and then analyzed for the formation of 4HNE-protein adducts.

[2] = system: intracellular GSH in PC12 cells; assay: Intracellular glutathione (GSH) level, o-phthalaldehyde fluorimetry
Procedure: Measurement of glutathione (GSH): In brief, PC12 cells were mock- or pre-treated with CLN or lactalbumin hydrolysate (LAH), both in 10 μg/ml concentration and then exposed to 4HNE (25 nM). PBS-washed (twice) cells were then extracted with 25% (w/v) metaphosphoric acid solution containing 5 mM EDTA. After ultracentrifugation (105,000 g for 30 min), 100 μl of 100 mM phosphate solution (pH 8.0) containing 5 mM EDTA and 10 μl of o-phthalaldehyde OPA(OPD; Molecular Probes, Inc.) was added to the supernatant, and the fluorescence intensity at 420 nm determined with excitation set at 350 nm (A. P. Senft et al., Anal Biochem., 280:80–86 (2000)).
To investigate whether the anti-oxidant effect of CLN was due to protection of intracellular GSH levels, PC12 cells were pre-treated (with CLN or LAH) and exposed to 4HNE, as described above, and changes in GSH levels were determined fluorimetrically. […] OPA (o-phthalaldehyde or phthalic dicarboxaldehyde) is highly fluorescent when it is conjugated to GSH (A.P. Senft et al., Anal Biochem., 280:80–86 (2000)).

[3] = system: 4HNE-protein adducts in PC12 cells; assay: 4HNE-protein adduct levels, Western blot analysis; conditions: 4HNE 25, 12.5, 6.2 nM alone
Procedure: as §1
To confirm the results generated by immunochemistry, Western blot analysis was used to investigate changes in 4HNE-protein adduct levels in cells treated with 4HNE alone or CLN plus 4HNE.

[4] = system: GSH extrusion from PC12 cells; assay: Reduced GSH in extracellular fluid (GSH extrusion); conditions: 4HNE, relative to CLN- or mock-treated cells
Procedure: To determine whether the loss of intracellular GSH was due to it's extrusion from the cells or oxidation, the level of reduced GSH in the extra-cellular fluid was evaluated.

PC12 cells = assay: 4HNE-induced apoptosis, annexin V-PE / 7-AAD flow cytometry
Procedure: FIG. 8. […] PC12 cells were treated with CLN (1 μg per ml) for 15 min and 4HNE (100 nM) was added. Twenty four hours later, cells were harvested and stained with annexin V-PE and 7-AAD. 1, solvent alone; 2, 100 nM 4HNE; 3, TROLOX (vitamin E) 4, col (internal control)+100 nM 4HNE; 5, CLN alone (1 μg per ml); 6, CLN (1 μg per ml)+100 nM 4HNE.
Apoptosis is a specific mode of cell death recognized by a characteristic pattern of morphological, biochemical, and molecular changes. Currently the hallmark of apoptosis in vitro is DNA fragmentation and changes in plasma membrane reorganization that allows for the surface expression of phosphatidyl-D-serine and result in increased membrane permeability. The protection of cells against 4HNE by CLN using increased permeability and cell membrane expression of phosphatidyl-D-serine was investigated.
Cells were simultaneously labeled with fluorochrome-conjugated annexin V-PE (detecting PS asymmetry in the plasma membrane, an early marker of apoptosis), 7-aminoactinomycin D (7-AAD) (detecting increased membrane permeability associated with both apoptosis and necrosis). A dual laser flow cytometer (either a Becton-Dickinson FACScan) was used for the simultaneous detection of the PE-conjugated annexin V (which is excited at […]), 7-AAD (excited at 488 nm and emitting at 670 nm). […]

SH-SY5Y cells [5] = assay: Protection against retinoic acid toxicity in SH-SY5Y cells, microscopic grading; conditions: for DIFFERENTIATION: Retinoic Acid 20 μM (Day 1) alone
Procedure: (§2) Retinoic Acid was left on the plate for the duration of the experiment or until washed off. Colostrinin was added to the plate at the indicated doses. When added on Day 1, it was present during the entire experiment. When added on Day 5, it was incubated on the plate for 30 minutes at 37° C. and then removed. The wells were washed twice with PBS before adding β-Amyloid. Cultures were then observed under the microscope and graded.

SH-SY5Y cells [6] = assay: Anti-apoptotic activity against β-amyloid toxicity in SH-SY5Y cells, microscopic grading; conditions: Beta-amyloid 10 μg/ml added on day 5
Procedure: as §2, with “To determine whether this was reproducible and to determine the potency of CLN to inhibit retinoic acid toxicity, two concentration of retinoic acid were used to treat cells on day one of the experiment, 20 μM and 40 μM. *Control wells were mock-treated for the duration of the experiment. Retinoic” for “Retinoic”

Nc1ncnc2c1nc(Sc1ccc(Cl)cc1)n2[C@@H]1O[C@@H]2COP(=O)(O)O[C@H]2[C@H]1O [8-(4-chlorophenylthio)-cAMP]
4HNE-induced JNK phosphorylation (JNK; pretreatment with inhibitor of JNK activation): prevented 4HNE-induced JNK phosphorylation

CCCCCC(O)/C=C/C=O (centres unmarked) [4HNE]
p53 activation, 4HNE alone (p53): induced its activation
JNK phosphorylation, 4HNE alone (JNK; 4HNE 25 nM alone): potent inducer of JNK phosphorylation
4HNE-protein adduct fluorescence, inducer alone [1]: bright fluorescence
loss of GSH ([2]; 4HNE 25 nM): more than 50%
intracellular GSH levels, 4HNE alone ([2]; 4HNE alone for 30 min): significant reduction of intracellular GSH levels
4HNE-protein adduct levels (Western blot), 4HNE alone [3]: significant increase in levels of 4HNE-protein adducts
OPA-GSH-mediated fluorescence of extracellular fluid [4]: significant increase in OPA-GSH-mediated fluorescence
toxic effects / induction of apoptosis (PC12 cells; 4HNE 25 nM, PC12 cells): did not show toxic effects or induce apoptosis
apoptosis, 4HNE alone (PC12 cells; 4HNE 100 nM): Induction of apoptosis

CC1=C(/C=C/C(C)=C/C=C/C(C)=C/C(=O)O)C(C)(C)CCC1 [Retinoic Acid]
DIFFERENTIATION (SH-SY5Y cells [5]; cells observed Day 2): ++++ (Day 2)^b (++++ Approximately 100% of the cells)
DIFFERENTIATION (SH-SY5Y cells [5]; cells observed Day 8): + (Day 8)^b (+ Approximately 25% of the cells)
onset of toxicity, retinoic acid alone (SH-SY5Y cells [5]; retinoic acid 20 μM): started showing signs of toxicity by day 6
cell morphology, retinoic acid alone (FIG. 6F) (SH-SY5Y cells [5]; retinoic acid 20 μM added on day 1): Toxic (apoptotic) effect
toxicity, retinoic acid alone (SH-SY5Y cells [5]; retinoic acid 40 μM): the toxicity developed too rapidly

β-Amyloid
cell morphology, Beta-amyloid alone (FIG. 6B) (SH-SY5Y cells [6]): show its toxicity

OO [H2O2]
4HNE-protein adduct fluorescence, inducer alone [1]: bright fluorescence

Source: US7119064B2, “Use of colostrinin, constituent peptides thereof, and analogs thereof as modulators of intracellular signaling molecules” (Board of Regents, The University of Texas System, priority 1999, dated 2006)
